Reference: patent US20160367708A1, “COMPOSITIONS AND METHODS OF TREATING CANCER” (THE JOHNS HOPKINS UNIVERSITY, priority 2013, published 2016)

Legend:
[1] = tested on: Syngeneic BALB/c CRL2836 tumors; test: ^32P-mediated tumor growth inhibition in syngeneic BALB/c mice; assay type: in vivo, mouse; details: for inhibition of established syngeneic tumor growth: single IV injection of 5 μCi ten days after tumor cell injection
Excerpt: FIG. 5. Inhibition of BALB/c syngeneic tumor growth by [^32P]PO4. Syngeneic BALB/c CRL2836 tumors were established in the rear flanks of BALB/c mice at Day 0. After ten days during which the tumors became well vascularized, mice received an injection of 5 μCi of [^32P]PO4 intra-venously via the tail vein. The tumor volumes are shown as the mean of six tumors plus/minus the standard error of the mean. The student's two-sided t-test determined the P value shown.
Establishment of mouse tumors. Syngeneic BALB/c mouse tumors were established by injecting 2×10^6 BALB/c tumor CRL2836 cells ([…], Manassas, Va.) in a volume of 0.2 mL (50% Matrigel, 50% 1×PBS) subcutaneously in the left rear and right rear flank. All mice were female, 10 weeks of age, and purchased from Charles River Laboratories (Wilmington, Mass.).
^32P-Mediated tumor growth inhibition. After ten days, during which time well-vascularized tumors were established, an injection of 5 μCi of the monophosphate form of ^32P (Perkin-Elmer, Cat. # NEX06000) was injected intravenously via the tail vein in 0.1 mL of 1×HBSS. Six tumors (three animals) were studied in each group. After injection, tumor growth was measured three times per week with a digital caliper and the volume was determined using the formula: volume=½(width)^2×(length).
Statistical analysis. The data from the WST-1 cell proliferation are presented as means±standard deviation and the significance was determined using the unpaired Student's t test. The tumor volumes of the untreated and treated mice are shown as means±SE and no outliers were excluded for any reason. The significance was determined using the unpaired Student's t test.

HeLa cells [2] = test: WST-1 cell proliferation assay, [^32P]PO4 versus ^90Y; assay type: cell-based, human
Procedure: (§1) FIG. 2. Inhibition of cell growth by [^32P]PO4 or [^90Y]. The WST-1 proliferation assay was done to determine the level of cell kill by ^32P or by ^90Y. BALB/c tumor CRL2836 cells or HeLa cells were exposed to 0 Ci, 1 μCi, 2.5 μCi, or 5 μCi in complete medium. After 24 hours, the radioactivity was removed and cells were grown in non-radioactive complete medium. WST-1 cell proliferation assays were done at Days 1, 2, 3, 4, and 5 and all assays were done in triplicate. The mean is shown plus/minus the standard deviation. The student's two-sided t-test determined the P value shown.
(§2) Measurement of in vitro cell killing by ^32P and ^90Y. Two thousand cells of the mouse BALB/c CRL2836 cell line or the human HeLa cell line were grown in complete medium in a 96-well plate and at Day 0 were exposed to either 0, 1, 2.5, or 5 μCi of ^90Y radioisotope or the [^32P]PO4 radioisotope in complete medium. After a 24 h incubation, the radioisotope-containing medium was removed and replaced with non-radioactive complete medium (Day 1). […]
(§3) Statistical analysis. The data from the WST-1 cell proliferation are presented as means±standard deviation and the significance was determined using the unpaired Student's t test. […] The significance was determined using the unpaired Student's t test.

[3] = tested on: BALB/c tumor CRL2836 cells; test: as above; assay type: cell-based, mouse
Procedure: as §1, §2, §3

HeLa cell xenografts = details: applicants' earlier work, cited from earlier work; for inhibition of xenograft tumor growth: nude mice, single low-dose IV injection
[4] = tested on: mouse BALB/c CRL2836 cell line or the human HeLa cell line; test: WST-1 cell proliferation assay, ^32P taken up from the medium versus ^32P held in tubes (electron bombardment only); assay type: cell-based; details: isotope added directly to the medium for 1 day, compared with isotope kept in tubes in the wells; followed up to six days
Procedure: FIG. 1. A cell proliferation assay using WST-1 was performed to assess the relative cell killing ability of ^32Pmonophosphate that is taken up by cells into the DNA versus that which is not taken up by the cells, but subjected only to electron bombardment.
Measurement of In Vitro Cell Killing by ^32P Radioisotope. Two thousand cells of the mouse BALB/c CRL2836 cell line or the human HeLa cell line were growing in complete medium in wells of a 96-well plate and were exposed to either 0 uCi, 3 uCi or 10 uCi of the [^32P]pyrophosphate or the [^32P]monophosphate radioisotopes. One set of triplicate wells contained medium with the designated form of the isotope, while another set of triplicate wells had the isotope contained in small tubes placed in the wells. […] After a 24 hour exposure time, fresh non-radioactive medium was added and WST-1 proliferation assays were done at several subsequent time points.
To assess the relative cell killing ability of [^32P]monophosphate that is taken up by cells into the DNA versus that of is not taken up by the cells, but subjected only to electron bombardment, a cell proliferation assay using WST-1 was undertaken (FIG. 1). […]

HeLa cells [5] = test: H2AX immunostain assay of double-strand DNA breaks, ^32P versus ^90Y; assay type: cell-based, human; details: 3 μCi for 24 h, Day 1, 2 or 3
Procedure: FIG. 4. Determination of double-strand DNA breaks in cells caused by exposure to [^32P]PO4 or ^90Y. HeLa cells or mouse BALB/c CRL2836 cells were grown in multiple sections of chamber slides and exposed to 0 μCi or 3 μCi of [^32P]PO4 or ^90Y in complete medium at Day 0. After 24 hours, the radioactivity was removed and cells were grown in non-radioactive complete medium. At Day 1, 2, or 3 the presence of double-strand DNA breaks in the cells was determined by staining for phosphorylated H2-AX histones which indicate double-strand DNA damage.
Assessment of Double-Strand DNA Breaks by ^32P and ^90Y. Ten thousand HeLa cells were seeded in Lab-TekII chamber slides (Thermo Fisher Scientific Inc., Waltham, Mass.). At Day 0 cells were treated with 0 or 3 μCi of ^32P or ^90Y in complete medium. At Day 1, all wells were gently washed and fresh non-radioactive medium was added. At Day 1, Day 2, or Day 3, cells were fixed with 10% formalin at room temperature for 10 min, washed with PBS for two min, and permeabilized with 0.2% Triton X-100 with 10% FBS in PBS for 15 min. After a rinse with PBS, primary mouse anti-human H2AX antibody with 1:1000 dilution (Millipore, Billerica, Mass.) was incubated for 1 h at ambient temperature, and washed twice with PBS for 5 min. […]

[6] = 24 h exposure to identical amounts of isotope

Molecule | effects on the health of the mice (weight gain, overall activity levels) ([1]; single IV injection of 5 μCi) | inhibition of established syngeneic tumor growth [1] | inhibition of established syngeneic tumor growth ([1]; listed as 32P) | survival rates at Day 5 relative to ^90Y (HeLa cells [2]; 2.5 μCi and 5 μCi doses, Day 5) | cell killing efficiency compared with ^90Y (HeLa cells [2]; [6]) | survival rates at Day 5 relative to ^90Y ([3]; 2.5 μCi and 5 μCi doses, Day 5) | cell killing efficiency compared with ^90Y [3, 6] | inhibition of xenograft tumor growth (HeLa cell xenografts) | detrimental effects (weight gain, general activity, overall health) (HeLa cell xenografts; xenografted nude mice) | cell death as monitored by the lack of cell growth [4] | double-strand DNA breakage (nuclear staining for phosphorylated H2AX) (HeLa cells [5])
O=[32P](O)(O)O [[^32P]PO4, ^32P monophosphate] | no apparent detrimental effects | significantly inhibited | strongly and effectively inhibited tumor growth | barely half of those produced by ^90Y | killed cells more efficiently than did ^90Y | barely half of those produced by ^90Y | killed cells more efficiently than did ^90Y | strongly and effectively inhibited tumor growth | no apparent detrimental effects | far greater levels of cell death | significant, time-dependent double-strand DNA breakage
[^32P]ATP |  |  |  |  |  |  |  | significant inhibition |  |  | 
